This is an account of results in patent publication US7367933B2, “Screening of chemical compounds purified from biological sources” (Sequoia Sciences, Inc., priority 1999, dated 2008).

Assay [1] has as its system B16 melanoma. The settings on record: previously reported for compounds from stem bark of Taxus baccata; cited from earlier work.
In assay [2] the test system is MCF7 breast cancer, NCI-H460 lung cancer, and SF-268 CNS cancer. The assay is described as follows: NCI in vitro 3-cell-line anticancer panel (overall statement). Type of assay: cell-based. The conditions noted are these: NCI 3-cell-line panel. The procedure:
(§1) In vitro cytotoxicity tests were conducted at the NCI using an in vitro 3-cell-line panel consisting of MCF7 breast cancer, NCI-H460 lung cancer, and SF-268 CNS cancer. Each cell line was inoculated and incubated in microtiter plates. After 24 hours test samples were added to a final assay concentration of 2 μg/mL and the culture was incubated for 48 hours. Results for each test sample were reported as the percentage of growth of the treated cells when compared to untreated controls. Compounds which reduced the growth of any one of the cell lines […] against standard were considered to be active.

Assay [3] deals with NCI-H460 lung cancer. The assay is described as follows: NCI in vitro cytotoxicity test, 3-cell-line panel: NCI-H460. Type of assay: cell-based. The conditions noted are these: 2 μg/mL, 48 hours incubation; less than 32% = active. The procedure:
as §1

In assay [4] the test system is MCF7 breast cancer. The assay is described as follows: NCI in vitro cytotoxicity test, 3-cell-line panel: MCF7. Type of assay: cell-based. The settings on record: 2 μg/mL, 48 hours incubation; less than 32% = active. How it is done:
as §1

In assay [5] the test system is SF-268 CNS cancer. The assay is described as follows: NCI in vitro cytotoxicity test, 3-cell-line panel: SF-268. The assay is classed as cell-based. The conditions noted are these: 2 μg/mL, 48 hours incubation; less than 32% = active. How it is done: as §1

For `CCCCCC(=O)N[C@@H](c1ccccc1)[C@@H](O)C(=O)O[C@H]1C[C@@]2(O)[C@@H](OC(=O)c3ccccc3)[C@@H]3[C@]4(OC(C)=O)CO[C@@H]4C[C@H](O[C@@H]4OC[C@@H](O)[C@H](O)[C@H]4O)[C@@]3(C)C(=O)[C@H](OC(C)=O)C(=C1C)C2(C)C` [7-(β-xylosyl)-taxol C], the “activity against B16 melanoma (in words)” value in assay [1] was “potent activity”. In addition, in assay [2], the “anticancer activity in the 3-cell-line anticancer panel (in words)” value (from here on “anticancer activity”) is reported as “active”.
In the case of `CC(=O)O[C@H]1C(=O)[C@]2(C)[C@@H](O[C@@H]3OC[C@@H](O)[C@H](O)[C@H]3O)C[C@H]3OC[C@@]3(OC(C)=O)[C@H]2[C@H](OC(=O)c2ccccc2)[C@]2(O)C[C@H](OC(=O)[C@H](O)[C@@H](NC(=O)c3ccccc3)c3ccccc3)C(C)=C1C2(C)C` [7-(β-xylosyl)-taxol], the “activity against B16 melanoma (in words)” value in assay [1] is reported as “potent activity”. Also, in assay [2], the “anticancer activity” value is recorded as “active”.
As to `CC(=O)O[C@H]1C(=O)[C@@]2(C)[C@H]([C@H](OC(=O)c3ccccc3)[C@]3(O)C[C@H](OC(=O)[C@H](O)[C@@H](NC(=O)c4ccccc4)c4ccccc4)C(C)=C1C3(C)C)[C@]1(OC(C)=O)CO[C@@H]1C[C@@H]2O` [TX003-17, paclitaxel], the “H-460 Lung cancer, percentage of growth (One Dose Primary Anticancer Assay)” value in assay [3] is 30%. Further, the “anticancer activity” value in assay [2] is on record as “exhibited activity in all three cell lines”. Besides, in assay [4], the “MCF-7 Breast cancer, percentage of growth (One Dose Primary Anticancer Assay)” value was 21%. Also, the “SF-268 CNS cancer, percentage of growth (One Dose Primary Anticancer Assay)” value in assay [5] is recorded as 29%.
Regarding `CC(=O)O[C@H]1C(=O)[C@@]2(C)[C@H]([C@H](OC(=O)c3ccccc3)[C@]3(O)C[C@H](OC(=O)[C@H](O)[C@@H](NC(=O)c4ccccc4)c4ccccc4)C(C)=C1C3(C)C)[C@]1(OC(C)=O)CO[C@@H]1C[C@@H]2O` [Paclitaxel], in assay [3], the “H-460 Lung cancer, percentage of growth (One Dose Primary Anticancer Assay)” value was found to be 13%. The “MCF-7 Breast cancer, percentage of growth (One Dose Primary Anticancer Assay)” value in assay [4] is given as 23%. The “SF-268 CNS cancer, percentage of growth (One Dose Primary Anticancer Assay)” value in assay [5] is given as 30%.
The corresponding values for `C/C=C(\C)C(=O)N[C@@H](c1ccccc1)[C@@H](O)C(=O)O[C@H]1C[C@@]2(O)[C@@H](OC(=O)c3ccccc3)[C@@H]3[C@]4(OC(C)=O)CO[C@@H]4C[C@H](O)[C@@]3(C)C(=O)[C@H](OC(C)=O)C(=C1C)C2(C)C` [Cephalomanine] are 19%, 15% and 30%.
For the compound `CCCCCC(=O)N[C@@H](c1ccccc1)[C@@H](O)C(=O)O[C@H]1C[C@@]2(O)[C@@H](OC(=O)c3ccccc3)[C@@H]3[C@]4(OC(C)=O)CO[C@@H]4C[C@H](O[C@@H]4OC[C@@H](O)[C@H](O)[C@H]4O)[C@@]3(C)C(=O)[C@H](O)C(=C1C)C2(C)C` [7-(β-xylosyl)-10-deacetyltaxol C], the “activity against B16 melanoma (in words)” value in assay [1] is “potent activity”. Also, the “anticancer activity” value in assay [2] is recorded as “active”.
